# From PubChem BioAssay (NCI)
#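 Results reflect a 48-hour exposure of cells in 96-well plates to compound at five concentrations. At the GI50, growth is halved. Definition used: TGI = concentration required for complete inhibition of growth.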
# Experiments:
# Assay in all cases: NCI-60 cell line screen, 48 h
# NCI-H23 lung = test system: NCI-H23 lung
# HCT-116 colon = test system: HCT-116 colon
# NCI-H460 lung = test system: NCI-H460 lung
# OVCAR-5 ovarian = test system: OVCAR-5 ovarian
# MDA-MB-231 breast = test system: MDA-MB-231 breast
# IGROV1 ovarian = test system: IGROV1 ovarian
# ACHN renal = test system: ACHN renal
# HCT-15 colon = test system: HCT-15 colon
# A549 NSCLC = test system: A549 NSCLC
# UO-31 renal = test system: UO-31 renal
Structure (SMILES),TGI (NCI-H23 lung) [µM],TGI (HCT-116 colon) [µM],TGI (NCI-H460 lung) [µM],TGI (OVCAR-5 ovarian) [µM],TGI (MDA-MB-231 breast) [µM],TGI (IGROV1 ovarian) [µM],TGI (ACHN renal) [µM],TGI (HCT-15 colon) [µM],TGI (A549 NSCLC) [µM],TGI (UO-31 renal) [µM],GI50 (NCI-H23 lung) [µM],GI50 (HCT-116 colon) [µM],GI50 (NCI-H460 lung) [µM],GI50 (UO-31 renal) [µM],GI50 (OVCAR-5 ovarian) [µM],GI50 (MDA-MB-231 breast) [µM],GI50 (IGROV1 ovarian) [µM],GI50 (ACHN renal) [µM],GI50 (HCT-15 colon) [µM],GI50 (A549 NSCLC) [µM]
c1cc2c(c(NC3=NCCN3)c1)CCCC2,> 100,> 100,> 100,> 100,> 100,> 100,> 100,> 100,> 100,,,,,,,,,,,
O=C(/C=C/c1ccc(O)cc1)c1cc(Cl)ccc1O,> 100,58,> 100,,,> 100,> 100,,> 100,70.5,,,,,,,,,,
O=C1NC(=O)C(c2c[nH]c3ccccc23)=C1c1ccccc1,> 25,> 25,> 25,> 25,> 25,> 25,> 25,> 25,> 25,> 25,> 25,> 25,> 25,> 24,> 25,> 25,> 25,> 25,> 25,> 25
ClCCCCOC1CCCCO1 (stereo not given),> 100,> 100,> 100,> 100,,> 100,> 100,> 100,> 100,> 100,,,,,,,,,,
Nc1nc2ncn(CC(O)COC(=O)c3ccccc3)c2c(=O)[nH]1 (stereo not given),> 100,> 100,> 100,> 100,,> 100,> 100,> 100,> 100,> 100,,,,,,,,,,
COC(CC1(OC)OC(=O)C=C1N)OC (stereo not given),> 100,> 100,> 100,> 100,,> 100,> 100,> 100,> 100,> 100,,,,,,,,,,
N=C1C(c2nc3ccccc3s2)=C(O)CN1c1cc(Cl)cc(Cl)c1,> 100,> 100,> 100,> 100,> 100,,> 100,> 100,> 100,> 100,> 100,87.2,18.5,91.3,> 100,23.6,,> 100,0.705,> 100
CC1COCCN1CC#CCOC(=O)c1cc2ccccc2oc1=O (stereo not given),> 100,> 100,> 100,> 100,> 100,> 100,> 100,> 100,> 100,> 100,> 100,> 100,> 100,> 100,> 100,> 100,> 100,> 100,> 100,> 100
N#CC1C(=O)NC(=O)C1=O (stereo not given),> 100,> 100,> 100,> 100,,> 100,> 100,> 100,,> 100,,,,,,,,,,
COc1cc2c(cc1O)C1CC(CC3CCCCN31)OC(=O)/C=C\c1ccc(O)c-2c1 (stereo not given),> 100,> 100,> 100,> 100,64.8,> 100,> 100,> 100,> 100,65,,,,,,,,,,
COc1ccc2c(c1)N(CCO)C1=C(C(=O)OC1)C2c1ccc(OC)c(OC)c1 (stereo not given),> 100,15.3,12.6,> 100,10.7,> 100,> 100,> 100,> 100,> 100,3.39,2.64,3.09,4.65,5.76,3.63,3.46,6.3,3.09,3.86
Cc1cc(N)cc(C)c1-c1c(Br)cc(N)cc1Br,19,13.1,11.2,> 100,26.3,> 100,98.4,> 100,56.5,46,3.52,3.68,3.31,9.11,4.84,4.1,4.32,10.6,4.77,4.71
Cc1cc2c(cc1Cl)SC(C(=O)c1ccc(Cl)c(Cl)c1)NS2(=O)=O (stereo not given),89.5,40.8,50.7,> 100,> 100,> 100,85.6,76.1,> 100,> 100,34.1,21.9,23.5,42.2,49.2,36.7,40.9,29.8,28.7,45.2
CCCCC(C(=O)CCC(=O)Nc1ccc(Cl)cc1)C(=O)C(C)C (stereo not given),> 100,> 100,> 100,> 100,,> 100,> 100,> 100,> 100,> 100,,,,,,,,,,
CCCCCCCCCCCC(=O)OC(COC(N)=O)COc1ccc(Cl)cc1 (stereo not given),46,30,47.4,,,81.2,> 100,91.3,36.8,> 100,,,,,,,,,,
COC(=O)C1=C(\O)C[C@@]2(C)CC[C@@H](C(=O)OC)C2C/C=C\1C(=O)OC (stereo not given in full),,> 100,> 100,> 100,,> 100,> 100,> 100,> 100,> 100,,,,,,,,,,
N#Cc1cn(-c2c3ccccc3nc3ccccc23)c(=O)[nH]c1=O,,> 100,,32.9,,71.8,34.8,31.9,24,25,,,,,,,,,,
CN1CCc2cc3c4cc2C1Cc1ccc(cc1)Oc1cc(ccc1O)CC1c2c(cc(O)c(c2O4)O3)CCN1C (stereo not given),13.5,3.19,4.01,14.8,,14.3,20.7,4.27,6.11,13.6,,,,,,,,,,
